# Measured values published in PMC11645656, “MRGPRX4 mediates phospho-drug associated pruritus in a humanized mouse model” (Science translational medicine, 2024).
# “And” between values parts separate entries of the source, which are not always exact repeats. Equal entries are not always repeated.
# Experiments:
# NP2-X4+ DRG neurons = assay: GCaMP6s calcium imaging of cultured NP2-X4+ DRG neurons; assay type: cell-based, mouse; settings: 10 μM phospho-drugs; 1 mM CQ
# Text: Fig. 2. Phosphate monoester prodrugs induce itch in NP2-MRGPRX4+ mice through activating NP2 primary sensory neurons. (A) Mating strategy to generate NP2-X4+ mice. (B) In situ hybridization showing MRGPRX4 transcripts (magenta) in NP2-X4+ DRG as indicated by arrowheads (left) but not in littermate control NP2-WT (right). NP2 subpopulation accounts for 5% of total DRG neurons. DAPI, blue. Scale bar, 50 μm. […]. Data are expressed as mean ± SEM. *p< 0.05, **p< 0.01 and ***p< 0.001 by two-tailed unpaired Student’s t-test. ns = no statistical significance observed. (D and E) Traces of average (top, depicted as mean ± 95% confidence interval) and individual (bottom, reflected by the heatmap) calcium activity, measured by fluorescence intensity normalized to the baseline intensity (FT/F0) over time of NP2-X4+ (D) and NP2-WT (E) DRG neurons labelled with GCaMP6s (n = 110–150 neurons pooled from 3–7 independent culture vessels from 2–4 mice in each condition). 10 μM phospho-drugs and 1 mM CQ were added as indicated by the arrowheads. Neurons with FT/F0 > 1.5 after compound application were considered a positive responder. NP2-X4+: NP2-MRGPRX4+; DRG, dorsal root ganglia; CQ: chloroquine.
# The procedures were performed following previously established protocols ([15]). Murine DRGs (from both male and female) were harvested from all spinal segments and digested in dispase (5 mg/ml) / type I collagenase (1 mg/ml) enzyme mix at 37 °C for an hour. Enzyme mix was replaced with complete DH10 media (90% DMEM/F12, 10% FBS, penicillin (100 units/ml), and streptomycin (100 μg/ml)) and gently triturated with 1 ml pipette tip until the media turned cloudy without visible tissue chunks. Dissociated tissues were filtered through a 70 μm filter and spun down 1250 rpm for 5 min at RT. Supernatant was removed and the cell pellet was resuspended in complete DH10 media. Cell suspension was then added on top of poly-D-lysine- and laminin-coated coverslips and sat for 1–2 h at 37°C. Complete DH10 media supplemented with NGF (50 ng/ml) was then added into the vessel. Neurons were allowed to recover overnight at 37°C for the next-day calcium imaging experiment.
# Calcium imaging data was collected with a Nikon Eclipse TE 200 microscope. Time series GCaMP6 fluorescence intensity was acquired through the FITC/GFP channel. Before the imaging, cultured neurons were washed and equilibrated in CIB for 30 min at 37°C. In each trial, compounds (as indicated in the results) were added into the imaging chamber after a 30 s baseline GCaMP6 activity was collected. […] Neurons with GCaMP6 signal rose above 50% of the baseline intensity after compound application were counted as positive responders and the percentage of responding neurons was calculated. […]
# mock = assay: Calcium mobilization assay (FLIPR), mock-transfected control cells (Fig. 3E and 3F); assay type: cell-based
# [1] = test system: MRGPRX4-expressing HEK293 cells (Gαq signaling pathway); assay: Pharmacological blocker experiments: phospho-drug evoked calcium response in MRGPRX4-expressing HEK293 cells after inhibitor preincubation
# Description: Various HEK293 cell lines were plated on PDL-coated glass coverslips. […] For pharmacological blocker experiments, cells were pre-incubated with signaling pathway inhibitors, including YM254890, U73122, and thapsigargin, for 30 min before imaging.
# Traces of [Ca2+] from MRGPRX4-expressing HEK293 cells stimulated with (A) 1 µM
# U73122 (middle), or 10 µM sarco/endoplasmic reticulum Ca2+-ATPase inhibitor thapsigargin
# (right) for 30 min before imaging.
# independent experiments, each performed in quadruplicate.
smiles,measurement,setting,value
O=C1NC(c2ccccc2)(c2ccccc2)C(=O)N1COP(=O)(O)O [Fosphenytoin],Calcium response of NP2-X4+ neurons,NP2-X4+ DRG neurons,strong calcium transients
same,"Calcium mobilization response, dose-response replicate data (Fig. 3E and 3F)",mock; concentration 188 pM,2.751 and 6.052 and -2.532
same,"Calcium mobilization response, dose-response replicate data (Fig. 3E and 3F)",mock; concentration 565 pM,4.071 and -5.503 and 12.3245
same,"Calcium mobilization response, dose-response replicate data (Fig. 3E and 3F)",mock; concentration 1.69e-9 M,4.071 and 3.081 and -1.212
same,"Calcium mobilization response, dose-response replicate data (Fig. 3E and 3F)",mock; concentration 5.08e-9 M,3.411 and -2.202
same,"Calcium mobilization response, dose-response replicate data (Fig. 3E and 3F)",mock; concentration 1.52e-8 M,-1.542 and -1.212 and -3.853
same,"Calcium mobilization response, dose-response replicate data (Fig. 3E and 3F)",mock; concentration 4.57e-8 M,-2.532 and -6.494 and 5.722
same,"Calcium mobilization response, dose-response replicate data (Fig. 3E and 3F)",mock; concentration 1.37e-7 M,-8.474 and 2.091 and 3.411
same,"Calcium mobilization response, dose-response replicate data (Fig. 3E and 3F)",mock; concentration 4.12e-7 M,-2.202 and -3.522 and -0.2212
same,"Calcium mobilization response, dose-response replicate data (Fig. 3E and 3F)",mock; concentration 1.23e-6 M,-8.474 and -1.212 and -3.1923
same,"Calcium mobilization response, dose-response replicate data (Fig. 3E and 3F)",mock; concentration 3.7e-6 M,-6.824 and 3.081 and 0.4401
same,"Calcium mobilization response, dose-response replicate data (Fig. 3E and 3F)",mock; concentration 1.11e-5 M,-13.7563 and -1.212 and 1.1003
same,"Calcium mobilization response, dose-response replicate data (Fig. 3E and 3F)",mock; concentration 3.33e-5 M,-14.4165 and -16.3972 and -5.173
same,"Calcium mobilization response, dose-response replicate data (Fig. 3E and 3F)",mock; concentration 0.0001 M,-29.6022 and -24.6503 and -24.9805
same,"calcium response trace, fig. S2B","[1]; Time 0.8024 s, + Vehicle",1
same,"calcium response trace, fig. S2B","[1]; Time 0.8024 s, + YM254890",1
same,"calcium response trace, fig. S2B","[1]; Time 3.296 s, + YM254890",1.0086
same,"calcium response trace, fig. S2B","[1]; Time 5.8096 s, + YM254890",1.014
same,"calcium response trace, fig. S2B","[1]; Time 8.3136 s, + YM254890",1.012
same,"calcium response trace, fig. S2B","[1]; Time 10.8264 s, + YM254890",1.017
same,"calcium response trace, fig. S2B","[1]; Time 13.3408 s, + YM254890",1.0091
same,"calcium response trace, fig. S2B","[1]; Time 15.8536 s, + YM254890",1.017
same,"calcium response trace, fig. S2B","[1]; Time 18.3672 s, + YM254890",1.0038
same,"calcium response trace, fig. S2B","[1]; Time 20.8808 s, + YM254890",1.022 and 1.026
same,"calcium response trace, fig. S2B","[1]; Time 23.3848 s, + YM254890",1.023 and 1.0316
same,"calcium response trace, fig. S2B","[1]; Time 25.8984 s, + YM254890",1.028 and 1.035
same,"calcium response trace, fig. S2B","[1]; Time 28.392 s, + YM254890",1.036 and 1.04
same,"calcium response trace, fig. S2B","[1]; Time 30.8952 s, + YM254890",1.032 and 1.039
same,"calcium response trace, fig. S2B","[1]; Time 33.3896 s, + YM254890",1.039 and 1.042
same,"calcium response trace, fig. S2B","[1]; Time 35.8728 s, + YM254890",1.035 and 1.045
same,"calcium response trace, fig. S2B","[1]; Time 38.3656 s, + YM254890",1.038 and 1.049
same,"calcium response trace, fig. S2B","[1]; Time 40.86 s, + YM254890",1.038 and 1.045
same,"calcium response trace, fig. S2B","[1]; Time 43.3632 s, + YM254890",1.041 and 1.036
same,"calcium response trace, fig. S2B","[1]; Time 45.8664 s, + YM254890",1.037 and 1.041
same,"calcium response trace, fig. S2B","[1]; Time 48.38 s, + YM254890",1.051 and 1.044
same,"calcium response trace, fig. S2B","[1]; Time 50.8936 s, + YM254890",1.041 and 1.044
same,"calcium response trace, fig. S2B","[1]; Time 53.4072 s, + YM254890",1.038 and 1.0407
same,"calcium response trace, fig. S2B","[1]; Time 55.9112 s, + YM254890",1.034 and 1.044
same,"calcium response trace, fig. S2B","[1]; Time 58.4248 s, + YM254890",1.04 and 1.039
same,"calcium response trace, fig. S2B","[1]; Time 60.9288 s, + YM254890",1.042 and 1.044
same,"calcium response trace, fig. S2B","[1]; Time 63.444 s, + YM254890",1.04 and 1.035
same,"calcium response trace, fig. S2B","[1]; Time 65.9256 s, + YM254890",1.037
same,"calcium response trace, fig. S2B","[1]; Time 68.4192 s, + YM254890",1.036
same,"calcium response trace, fig. S2B","[1]; Time 70.9024 s, + YM254890",1.036
same,"calcium response trace, fig. S2B","[1]; Time 73.3864 s, + YM254890",1.029
same,"calcium response trace, fig. S2B","[1]; Time 75.8896 s, + YM254890",1.034
same,"calcium response trace, fig. S2B","[1]; Time 78.3936 s, + YM254890",1.032
same,"calcium response trace, fig. S2B","[1]; Time 80.9064 s, + YM254890",1.03
same,"calcium response trace, fig. S2B","[1]; Time 83.4104 s, + YM254890",1.032
same,"calcium response trace, fig. S2B","[1]; Time 85.9136 s, + YM254890",1.031
same,"calcium response trace, fig. S2B","[1]; Time 88.4176 s, + YM254890",1.027
same,"calcium response trace, fig. S2B","[1]; Time 90.9336 s, + YM254890",1.025
same,"calcium response trace, fig. S2B","[1]; Time 93.4144 s, + YM254890",1.031
same,"calcium response trace, fig. S2B","[1]; Time 95.908 s, + YM254890",1.026
same,"calcium response trace, fig. S2B","[1]; Time 98.4016 s, + YM254890",1.025
same,"calcium response trace, fig. S2B","[1]; Time 100.895 s, + YM254890",1.029
same,"calcium response trace, fig. S2B","[1]; Time 103.389 s, + YM254890",1.027
same,"calcium response trace, fig. S2B","[1]; Time 105.892 s, + YM254890",1.0264
same,"calcium response trace, fig. S2B","[1]; Time 108.406 s, + YM254890",1.031
same,"calcium response trace, fig. S2B","[1]; Time 110.9 s, + YM254890",1.026
same,"calcium response trace, fig. S2B","[1]; Time 113.413 s, + YM254890",1.02
same,"calcium response trace, fig. S2B","[1]; Time 115.917 s, + YM254890",1.023
same,"calcium response trace, fig. S2B","[1]; Time 118.43 s, + YM254890",1.023
same,"calcium response trace, fig. S2B","[1]; Time 120.934 s, + YM254890",1.021
same,"calcium response trace, fig. S2B","[1]; Time 123.45 s, + YM254890",1.02
same,"calcium response trace, fig. S2B","[1]; Time 125.93 s, + YM254890",1.014
same,"calcium response trace, fig. S2B","[1]; Time 128.414 s, + YM254890",1.021
same,"calcium response trace, fig. S2B","[1]; Time 130.908 s, + YM254890",1.026
same,"calcium response trace, fig. S2B","[1]; Time 133.402 s, + YM254890",1.02
same,"calcium response trace, fig. S2B","[1]; Time 135.905 s, + YM254890",1.011
same,"calcium response trace, fig. S2B","[1]; Time 138.41 s, + YM254890",1.019
same,"calcium response trace, fig. S2B","[1]; Time 140.942 s, + YM254890",1.016
same,"calcium response trace, fig. S2B","[1]; Time 143.446 s, + YM254890",1.018
same,"calcium response trace, fig. S2B","[1]; Time 145.949 s, + YM254890",1.014
same,"calcium response trace, fig. S2B","[1]; Time 148.465 s, + YM254890",1.02
same,"calcium response trace, fig. S2B","[1]; Time 150.996 s, + YM254890",1.016
same,"calcium response trace, fig. S2B","[1]; Time 153.49 s, + YM254890",1.011
same,"calcium response trace, fig. S2B","[1]; Time 156.003 s, + YM254890",1.016
same,"calcium response trace, fig. S2B","[1]; Time 158.497 s, + YM254890",1.014
same,"calcium response trace, fig. S2B","[1]; Time 161 s, + YM254890",1.008
same,"calcium response trace, fig. S2B","[1]; Time 163.494 s, + YM254890",1.02
same,"calcium response trace, fig. S2B","[1]; Time 165.987 s, + YM254890",1.0117
same,"calcium response trace, fig. S2B","[1]; Time 168.481 s, + YM254890",1.018
same,"calcium response trace, fig. S2B","[1]; Time 170.974 s, + YM254890",1.011
same,"calcium response trace, fig. S2B","[1]; Time 173.488 s, + YM254890",1.015
same,"calcium response trace, fig. S2B","[1]; Time 175.991 s, + YM254890",1.0057
same,"calcium response trace, fig. S2B","[1]; Time 178.505 s, + YM254890",1.009
same,"calcium response trace, fig. S2B","[1]; Time 181.018 s, + YM254890",1.011
same,"calcium response trace, fig. S2B","[1]; Time 183.532 s, + YM254890",1.014
same,"calcium response trace, fig. S2B","[1]; Time 186.036 s, + YM254890",1.016
same,"calcium response trace, fig. S2B","[1]; Time 188.549 s, + YM254890",1.014
same,"calcium response trace, fig. S2B","[1]; Time 191.053 s, + YM254890",1.017
same,"calcium response trace, fig. S2B","[1]; Time 193.556 s, + YM254890",1.013
same,"calcium response trace, fig. S2B","[1]; Time 196.05 s, + YM254890",1.011
same,"calcium response trace, fig. S2B","[1]; Time 198.533 s, + YM254890",1.011
CC(C)c1cccc(C(C)C)c1OCOP(=O)(O)O [Fospropofol],Calcium response of NP2-X4+ neurons,NP2-X4+ DRG neurons,strong calcium transients
